For 36 compounds, EC50 results are on record in US20220332720A1, “BICYCLIC AGONISTS OF STIMULATOR OF INTERFERON GENES STING” (The Scripps Research Institute, priority 2019, published 2022).

For the assay, the system named is THP-1 Lucia ISG cells. Description: ISG-LUC activation assay (ISRE-luciferase assay). Type of assay: cell-based. The conditions noted are these: Homo sapiens, THP1-Lucia ISG; THP-1 Lucia ISG reporter cells, 24 hours; score based upon potency and efficacy relative to reference compound; read-out: ISG-LUC activation assay score. An excerpt: We have established a robust platform for identifying non-nucleotide small molecule STING agonists. his has been established using a primary assay involving a human THP-1 cell line carrying an IRF-inducible reporter with 5 copies of the IFN signaling response element. Counter screens, involving alternative reporter constructs, rodent cell-based assays, as well as cGAS and STING knock-out cell lines, are used to eliminate luciferase artifacts and ensure human-rodent cross species reactivity, as well as pathway selectivity. Biochemical assays, involving cGAS enzymatic activity and STING protein binding assays, are used to identify the specific target of identified hits.
Tissue culture. Wild-type (cat. no. thpl-isg) and STING KO (cat. no. thpd-kostg) THP-1-Lucia ISG cells were purchased from Invivogen and maintained in growth media consisting of RPMI 1640, 2mM L-glutamine, […], 10% heat-inactivated fetal bovine serum (FBS), 1,000 units/ml penicillin, 1,000 μg/ml streptomycin, 0.25 μg/ml Amphotericin B, and 100 μg/ml zeocin unless otherwise stated.
ISRE-luciferase assay. THP-1 Lucia ISG cells were resuspended in low-serum growth media (2% FBS) at a density of 5×10^5 cells/ml and treated with test article or vehicle (DMSO). 50 μL of cells were seeded into each well of a 384-well white greiner plates and incubated for 24 hours. To evaluate expression of the luciferase reporter, 30 μl of Quanti-luc (Invivogen) detection reagent was added to each well and luminescence was read using an Envision plate reader (Perkin Elmer) set with an integration time of 0.1 seconds.
For the compound `COC(=O)c1cc(F)c(OC)cc1NC(=O)c1ccc2c(ncn2C)n1` [Compound 56], the EC50 was greater than 1000 nM.
As to `COC(=O)c1cc(F)c(OC)cc1NC(=O)c1ccn2c(N)nnc2n1` [Compound 57], the EC50 is greater than 20000 nM.
The same measure for `COc1cc(NC(=O)c2ccn3c(N)nnc3n2)c(C(=O)O)cc1F` [Compound 58]: greater than 20000 nM.
Consider `C#Cc1cc(NC(=O)c2ccn3c(-c4ccncc4)nnc3n2)c(C(=O)O)cc1F` [Compound 59], for which the EC50 was greater than 20000 nM.
The same measure for `C#Cc1cc(NC(=O)c2cc(N)c3nnnn3n2)c(C(=O)O[C@@H]2CSSC[C@H]2O)cc1F` [Compound 60]: greater than 1000 nM; for `C#Cc1cc(NC(=O)c2ccc3c(-c4nnc[nH]4)nnn3n2)c(C(=O)O)cc1F` [Compound 61]: greater than 1000 nM; for `C#Cc1cc(NC(=O)c2ccn3c(S(C)(=O)=O)nnc3n2)c(C(=O)O)cc1F` [Compound 62]: greater than 20000 nM.
Turning to `C#Cc1cc(NC(=O)c2ccn3c([S+](C)[O-])nnc3n2)c(C(=O)O)cc1F` (stereo not drawn) [Compound 63], the EC50 was greater than 20000 nM.
With `C=Cc1ccc(C(=O)OC)c(NC(=O)c2cc(N)c3nnnn3n2)c1` [Compound 64], the EC50 is less than 900 nM.
In the case of `COC(=O)c1cc(Cl)c(Cl)cc1NC(=O)c1nn2nnnc2cc1N` [Compound 65] it was less than 900 nM.
The same measure for `C=C(F)c1ccc(C(=O)O)c(NC(=O)c2cc(N)c3nnnn3n2)c1` [Compound 66]: less than 900 nM.
In the case of `COC(=O)c1cc(F)c(OC)cc1NC(=O)c1cc(N)c2nnnn2n1` [Compound 67] it was less than 900 nM; in that of `COC(=O)c1cc(C#N)c(Cl)cc1NC(=O)c1cc2[nH]cnc2cn1` [Compound 68], greater than 1000 nM.
For `COC(=O)c1cc(F)c(F)cc1NC(=O)c1cc2[nH]cnc2cn1` [Compound 69], the EC50 is less than 900 nM.
The same measure for `C#Cc1cc(NC(=O)c2cc(NC(=O)OC(C)(C)C)c3nnnn3n2)c(C(=O)OC)cc1F` [Compound 70]: greater than 1000 nM; for `COC(=O)c1cc(F)c(F)cc1NC(=O)c1ccc2nnnn2n1` [Compound 71]: greater than 1000 nM.
As for `COC(=O)c1cc(C#N)c(Cl)cc1NC(=O)c1cnc2nc[nH]c2c1` [Compound 72], the EC50 was greater than 20000 nM.
The same measure for `COc1cc(NC(=O)c2cc(N)c3nnnn3n2)c(C(=O)O)cc1F` [Compound 73]: greater than 1000 nM.
In the case of `Nc1cc2nnnn2nc1C(=O)Nc1cc(Cl)c(Cl)cc1C(=O)O` [Compound 74] it was less than 3000 nM; in that of `COC(=O)c1cc(F)c(F)cc1NC(=O)c1ccn2c(C#N)cnc2n1` [Compound 75], greater than 1000 nM.
In the case of `COC(=O)c1cc(F)c(F)cc1NC(=O)N1CCn2cncc2C1` [Compound 76] it was greater than 1000 nM; in that of `COC(=O)c1cc(Cl)c(Cl)cc1NC(=O)c1nc2nc(O)ccn2n1` [Compound 77], greater than 1000 nM; in that of `O=C(Nc1cc(F)c(F)cc1C(=O)O)c1cc2[nH]cnc2cn1` [Compound 78], greater than 1000 nM.
Turning to `COC(=O)c1cc(F)c(OC)cc1NC(=O)c1cc(NC(=O)OC(C)(C)C)c2nnnn2n1` [Compound 79], the EC50 is greater than 1000 nM.
For the compound `COC(=O)c1cc(F)c(F)cc1NC(=O)c1nc2cnccn2n1` [Compound 80], the EC50 is greater than 1000 nM.
Regarding `COc1ccc(C(=O)O)c(NC(=O)c2cc(N)c3nnnn3n2)c1` [Compound 81], the EC50 was greater than 1000 nM.
As to `Nc1cc(C(=O)Nc2cc(Cl)c(Cl)cc2C(=O)O)nn2nnnc12` [Compound 82], the EC50 is greater than 1000 nM.
The same measure for `Nc1cc(C(=O)Nc2cc(Cl)c(F)cc2C(=O)O)nn2nnnc12` [Compound 83]: less than 900 nM.
Consider `COc1cc(NC(=O)c2cc(N)c3nnnn3n2)c(C(=O)O)cc1Cl` [Compound 84], for which the EC50 was greater than 1000 nM.
The same measure for `COC(=O)c1cc(F)c(F)cc1NC(=O)c1cc2ncccn2n1` [Compound 85]: greater than 20000 nM.
As for `COc1cc(NC(=O)c2cc(NC(=O)OC(C)(C)C)c3nnnn3n2)c(C(=O)O)cc1F` [Compound 86], the EC50 was greater than 1000 nM.
On to `COc1cc(NC(=O)c2nc3ccc(C(N)=O)nc3[nH]2)c(C(=O)O)cc1F` [Compound 87], for which the EC50 is greater than 20000 nM.
The same measure for `O=C(O)c1cc(Cl)c(Cl)cc1NC(=O)c1cccn2cnnc12` [Compound 88]: greater than 20000 nM; for `COC(=O)c1cc(Cl)c(Cl)cc1NC(=O)c1cccn2cnnc12` [Compound 89]: greater than 1000 nM.
Turning to `COC(=O)c1cc(C#N)c(Cl)cc1NC(=O)c1cc2[nH]ncc2cn1` [Compound 90], the EC50 is greater than 1000 nM.
`COC(=O)c1cc(Cl)c(Cl)cc1NC(=O)c1nc2n(n1)CCC(=O)N2` [Compound 91]: the EC50 was greater than 1000 nM.
